According to ChEMBL document CHEMBL1201862, “PubChem BioAssay data set” (2004):
Blank lines part the entries; values can stand above or below the compound they belong to. Activity calls are given as the source filed them.

Experiments:
Assay type in all cases: functional
[1] = Luminescence Cell-Based Dose Confirmation HTS to Identify Activators of 5'UTR Stem-Loop Driven Alpha-Synuclein mRNA Translation in H4 Neuroglioblastoma Cells. [Related pubchem assays: 1829 (Project Summary), 1814 (Primary HTS)]
[2] = target: T1, Sentrin-specific protease 6 (Homo sapiens, UniProt Q9GZR1);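 note: Luminescence-based dose-response confirmatory assay of SENP6 inhibition, following up an ultra-high-throughput screen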
T1 sequence (Q9GZR1 whole entry): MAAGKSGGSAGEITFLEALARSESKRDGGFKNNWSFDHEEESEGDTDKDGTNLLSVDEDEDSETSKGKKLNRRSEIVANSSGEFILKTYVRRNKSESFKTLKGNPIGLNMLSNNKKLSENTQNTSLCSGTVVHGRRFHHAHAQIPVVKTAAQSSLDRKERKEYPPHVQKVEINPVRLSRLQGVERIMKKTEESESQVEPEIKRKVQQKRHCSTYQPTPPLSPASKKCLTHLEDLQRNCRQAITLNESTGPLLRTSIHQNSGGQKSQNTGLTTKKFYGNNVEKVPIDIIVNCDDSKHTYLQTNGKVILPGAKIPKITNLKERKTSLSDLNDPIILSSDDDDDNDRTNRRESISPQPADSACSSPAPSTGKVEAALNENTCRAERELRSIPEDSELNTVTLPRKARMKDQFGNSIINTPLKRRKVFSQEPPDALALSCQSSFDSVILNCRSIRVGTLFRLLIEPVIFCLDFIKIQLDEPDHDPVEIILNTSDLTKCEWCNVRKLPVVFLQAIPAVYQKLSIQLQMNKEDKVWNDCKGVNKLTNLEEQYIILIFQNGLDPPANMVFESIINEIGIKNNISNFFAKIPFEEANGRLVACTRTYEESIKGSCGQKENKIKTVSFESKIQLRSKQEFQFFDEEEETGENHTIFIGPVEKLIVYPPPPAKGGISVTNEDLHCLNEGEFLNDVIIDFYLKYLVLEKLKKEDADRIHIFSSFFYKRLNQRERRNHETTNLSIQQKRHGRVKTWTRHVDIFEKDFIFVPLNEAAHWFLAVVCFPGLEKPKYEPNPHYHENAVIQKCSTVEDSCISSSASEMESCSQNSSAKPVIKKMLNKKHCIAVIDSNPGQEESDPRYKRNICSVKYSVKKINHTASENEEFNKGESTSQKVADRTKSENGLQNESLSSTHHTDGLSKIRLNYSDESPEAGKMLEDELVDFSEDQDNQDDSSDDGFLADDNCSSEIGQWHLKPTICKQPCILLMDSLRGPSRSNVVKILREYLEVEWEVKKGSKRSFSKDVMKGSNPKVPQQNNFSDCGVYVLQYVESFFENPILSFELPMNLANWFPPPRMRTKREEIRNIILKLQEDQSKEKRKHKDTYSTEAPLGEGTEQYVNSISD

[3] = target: Phosphorylase b kinase gamma catalytic chain, liver/testis isoform (Homo sapiens, UniProt P15735);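 note: PHKG2 measured as one member of a kinome-wide kinase panel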
[4] = target: Protein kinase C delta type (Homo sapiens, UniProt Q05655)
[5] = target: Tyrosine-protein kinase SYK (Homo sapiens, UniProt P43405)
[6] = target: Tyrosine-protein kinase ITK/TSK (Homo sapiens, UniProt Q08881);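 note: affinity for ITK measured as one member of a broad kinase panel profiling binding across the kinome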
[7] = target: Tyrosine-protein kinase ABL1 (Homo sapiens, UniProt P00519)
[8] = target: Protein-tyrosine kinase 6 (Homo sapiens, UniProt Q13882)
[9] = target: Mitogen-activated protein kinase kinase kinase kinase 5 (Homo sapiens, UniProt Q9Y4K4);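 note: measured as one member of a kinome-spanning kinase panel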
[10] = target: Cyclin-dependent kinase 1 (Homo sapiens, UniProt P06493);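 note: Kinome-wide panel profiling, with the target listed as panel member CDC2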
[11] = target: Serine/threonine-protein kinase pim-2 (Homo sapiens, UniProt Q9P1W9);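 note: value comes from a broad kinase panel profiling study in which PIM2 was one of the panel members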
[12] = target: BDNF/NT-3 growth factors receptor (Homo sapiens, UniProt Q16620);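 note: NTRK2 measured as one member of a broad kinome-wide kinase profiling panel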
[13] = target: Serine/threonine-protein kinase 3 (Homo sapiens, UniProt Q13188);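 note: measured as one member of a kinome-wide kinase panel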
[14] = target: Platelet-derived growth factor receptor beta (Homo sapiens, UniProt P09619);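 note: value comes from a kinome panel, with PDGFRB tested as one panel member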
[15] = target: Eukaryotic elongation factor 2 kinase (Homo sapiens, UniProt O00418)
[16] = target: Mitogen-activated protein kinase 13 (Homo sapiens, UniProt O15264)
[17] = target: Calcium/calmodulin-dependent protein kinase type II subunit beta (Homo sapiens, UniProt Q13554)

Sequence of Eukaryotic elongation factor 2 kinase (O00418 whole entry): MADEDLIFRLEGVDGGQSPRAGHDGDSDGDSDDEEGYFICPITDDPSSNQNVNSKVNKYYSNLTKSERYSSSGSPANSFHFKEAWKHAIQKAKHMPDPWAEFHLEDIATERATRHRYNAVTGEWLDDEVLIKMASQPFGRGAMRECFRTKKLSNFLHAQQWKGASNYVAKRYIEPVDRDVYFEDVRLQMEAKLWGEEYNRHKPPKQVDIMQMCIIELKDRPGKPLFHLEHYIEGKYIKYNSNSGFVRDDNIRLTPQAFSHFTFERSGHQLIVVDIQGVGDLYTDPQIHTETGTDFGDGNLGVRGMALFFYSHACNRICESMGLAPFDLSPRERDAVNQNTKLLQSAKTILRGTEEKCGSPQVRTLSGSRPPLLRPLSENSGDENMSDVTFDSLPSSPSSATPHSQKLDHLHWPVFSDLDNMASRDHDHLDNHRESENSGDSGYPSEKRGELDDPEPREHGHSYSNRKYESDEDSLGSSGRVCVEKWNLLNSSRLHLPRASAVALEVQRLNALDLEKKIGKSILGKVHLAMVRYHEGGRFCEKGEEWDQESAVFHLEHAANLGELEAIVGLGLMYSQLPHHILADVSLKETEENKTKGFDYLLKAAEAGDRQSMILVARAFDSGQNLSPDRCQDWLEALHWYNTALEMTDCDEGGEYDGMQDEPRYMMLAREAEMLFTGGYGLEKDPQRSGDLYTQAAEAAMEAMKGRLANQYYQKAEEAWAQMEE
Sequence of Mitogen-activated protein kinase 13 (O15264 whole entry): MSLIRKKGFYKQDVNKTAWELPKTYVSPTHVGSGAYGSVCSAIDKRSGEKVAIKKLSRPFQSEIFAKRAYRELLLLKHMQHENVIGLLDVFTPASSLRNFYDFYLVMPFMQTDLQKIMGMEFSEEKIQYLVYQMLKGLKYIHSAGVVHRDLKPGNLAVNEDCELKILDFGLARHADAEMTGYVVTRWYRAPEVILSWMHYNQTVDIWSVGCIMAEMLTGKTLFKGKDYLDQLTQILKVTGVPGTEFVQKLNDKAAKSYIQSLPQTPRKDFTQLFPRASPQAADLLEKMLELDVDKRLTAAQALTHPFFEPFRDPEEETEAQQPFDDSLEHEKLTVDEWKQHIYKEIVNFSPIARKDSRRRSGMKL
Sequence of Cyclin-dependent kinase 1 (P06493 whole entry): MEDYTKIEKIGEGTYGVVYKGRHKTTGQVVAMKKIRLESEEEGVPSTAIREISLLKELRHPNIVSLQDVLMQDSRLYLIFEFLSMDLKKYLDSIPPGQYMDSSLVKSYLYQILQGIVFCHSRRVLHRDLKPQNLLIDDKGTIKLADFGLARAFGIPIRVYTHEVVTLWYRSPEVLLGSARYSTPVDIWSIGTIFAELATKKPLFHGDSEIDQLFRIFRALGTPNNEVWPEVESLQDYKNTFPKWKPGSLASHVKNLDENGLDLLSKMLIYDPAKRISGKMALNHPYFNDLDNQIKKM
Sequence of Serine/threonine-protein kinase 3 (Q13188 whole entry): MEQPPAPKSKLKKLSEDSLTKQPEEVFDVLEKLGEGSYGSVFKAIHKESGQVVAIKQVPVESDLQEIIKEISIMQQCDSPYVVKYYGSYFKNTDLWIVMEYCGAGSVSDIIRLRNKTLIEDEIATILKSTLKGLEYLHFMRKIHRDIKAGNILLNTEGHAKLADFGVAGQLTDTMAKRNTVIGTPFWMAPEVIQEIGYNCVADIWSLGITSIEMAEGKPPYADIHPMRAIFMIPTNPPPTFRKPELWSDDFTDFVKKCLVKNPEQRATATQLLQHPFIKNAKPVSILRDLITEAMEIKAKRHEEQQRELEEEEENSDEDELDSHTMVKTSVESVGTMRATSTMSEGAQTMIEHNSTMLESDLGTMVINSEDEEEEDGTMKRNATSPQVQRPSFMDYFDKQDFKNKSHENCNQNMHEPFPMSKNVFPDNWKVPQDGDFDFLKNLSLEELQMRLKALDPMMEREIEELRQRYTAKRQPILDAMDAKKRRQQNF
Sequence of Mitogen-activated protein kinase kinase kinase kinase 5 (Q9Y4K4 whole entry): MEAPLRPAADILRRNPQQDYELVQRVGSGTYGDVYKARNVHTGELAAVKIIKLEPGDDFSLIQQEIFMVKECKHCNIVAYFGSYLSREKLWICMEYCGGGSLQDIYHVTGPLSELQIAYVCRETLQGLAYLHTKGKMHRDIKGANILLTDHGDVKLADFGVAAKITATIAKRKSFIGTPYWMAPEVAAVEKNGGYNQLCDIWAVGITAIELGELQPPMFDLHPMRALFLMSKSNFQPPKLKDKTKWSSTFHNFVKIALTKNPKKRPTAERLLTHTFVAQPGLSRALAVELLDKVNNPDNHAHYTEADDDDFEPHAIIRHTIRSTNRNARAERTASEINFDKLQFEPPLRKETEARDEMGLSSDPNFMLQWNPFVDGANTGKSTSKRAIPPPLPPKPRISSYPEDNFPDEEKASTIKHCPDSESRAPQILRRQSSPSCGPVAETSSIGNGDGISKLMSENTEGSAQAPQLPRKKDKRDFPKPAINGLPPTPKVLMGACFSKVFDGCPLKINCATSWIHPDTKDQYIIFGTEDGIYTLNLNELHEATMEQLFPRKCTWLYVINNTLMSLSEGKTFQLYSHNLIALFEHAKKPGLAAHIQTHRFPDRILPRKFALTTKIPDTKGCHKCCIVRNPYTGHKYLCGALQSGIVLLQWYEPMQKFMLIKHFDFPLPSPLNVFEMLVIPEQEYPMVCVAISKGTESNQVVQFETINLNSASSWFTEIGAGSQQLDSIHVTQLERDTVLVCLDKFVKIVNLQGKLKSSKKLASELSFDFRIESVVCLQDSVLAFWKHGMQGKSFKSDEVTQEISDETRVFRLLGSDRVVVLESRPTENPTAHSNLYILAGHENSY
Sequence of Tyrosine-protein kinase ABL1 (P00519 whole entry): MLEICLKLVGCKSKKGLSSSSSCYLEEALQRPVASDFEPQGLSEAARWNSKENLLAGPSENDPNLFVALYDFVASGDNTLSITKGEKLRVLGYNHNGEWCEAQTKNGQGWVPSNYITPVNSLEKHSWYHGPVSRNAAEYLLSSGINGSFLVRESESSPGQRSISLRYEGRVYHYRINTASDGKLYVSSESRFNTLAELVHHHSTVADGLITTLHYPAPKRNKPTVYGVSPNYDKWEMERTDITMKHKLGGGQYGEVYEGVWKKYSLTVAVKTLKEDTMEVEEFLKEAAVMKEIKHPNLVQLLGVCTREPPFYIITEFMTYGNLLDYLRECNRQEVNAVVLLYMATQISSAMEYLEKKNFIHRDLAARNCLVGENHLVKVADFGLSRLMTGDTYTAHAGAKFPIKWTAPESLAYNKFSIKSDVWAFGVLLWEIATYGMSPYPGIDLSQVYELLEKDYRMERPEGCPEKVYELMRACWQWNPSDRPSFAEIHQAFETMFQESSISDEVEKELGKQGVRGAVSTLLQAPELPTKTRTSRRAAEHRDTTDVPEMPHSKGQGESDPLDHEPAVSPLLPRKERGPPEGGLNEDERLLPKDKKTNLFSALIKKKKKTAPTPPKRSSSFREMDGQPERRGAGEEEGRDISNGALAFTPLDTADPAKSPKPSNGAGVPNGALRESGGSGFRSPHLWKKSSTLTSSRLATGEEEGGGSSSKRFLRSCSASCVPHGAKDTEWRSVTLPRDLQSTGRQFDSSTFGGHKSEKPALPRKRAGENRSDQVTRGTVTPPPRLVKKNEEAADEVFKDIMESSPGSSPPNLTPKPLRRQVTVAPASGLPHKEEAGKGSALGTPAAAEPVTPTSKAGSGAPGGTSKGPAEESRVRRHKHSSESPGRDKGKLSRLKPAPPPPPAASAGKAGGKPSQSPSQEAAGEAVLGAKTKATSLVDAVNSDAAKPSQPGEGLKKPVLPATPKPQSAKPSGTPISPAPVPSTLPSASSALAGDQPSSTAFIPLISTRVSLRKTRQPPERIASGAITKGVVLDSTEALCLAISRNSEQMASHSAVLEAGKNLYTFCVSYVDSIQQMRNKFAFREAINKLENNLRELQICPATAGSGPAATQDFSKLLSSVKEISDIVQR
Sequence of BDNF/NT-3 growth factors receptor (Q16620 whole entry): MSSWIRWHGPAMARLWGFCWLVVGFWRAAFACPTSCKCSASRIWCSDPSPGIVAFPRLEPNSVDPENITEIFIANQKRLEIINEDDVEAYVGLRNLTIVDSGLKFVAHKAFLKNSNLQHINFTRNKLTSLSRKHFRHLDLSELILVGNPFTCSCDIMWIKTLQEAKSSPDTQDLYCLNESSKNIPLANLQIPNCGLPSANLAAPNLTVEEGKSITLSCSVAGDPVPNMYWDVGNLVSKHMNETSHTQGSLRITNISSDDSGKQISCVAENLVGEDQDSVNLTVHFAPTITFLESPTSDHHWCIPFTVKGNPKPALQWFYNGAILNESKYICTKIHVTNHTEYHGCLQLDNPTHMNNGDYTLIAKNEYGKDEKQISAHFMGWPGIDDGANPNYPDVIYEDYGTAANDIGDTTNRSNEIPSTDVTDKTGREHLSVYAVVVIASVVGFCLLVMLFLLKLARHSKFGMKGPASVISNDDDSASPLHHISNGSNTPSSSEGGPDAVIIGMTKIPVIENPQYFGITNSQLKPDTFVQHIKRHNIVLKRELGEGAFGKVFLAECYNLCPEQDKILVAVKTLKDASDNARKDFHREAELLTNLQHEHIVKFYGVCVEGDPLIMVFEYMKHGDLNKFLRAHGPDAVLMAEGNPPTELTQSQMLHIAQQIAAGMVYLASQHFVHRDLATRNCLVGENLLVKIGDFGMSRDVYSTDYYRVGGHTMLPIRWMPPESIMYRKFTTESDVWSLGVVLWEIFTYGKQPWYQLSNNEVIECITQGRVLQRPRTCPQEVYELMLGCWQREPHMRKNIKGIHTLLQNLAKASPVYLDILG
Sequence of Serine/threonine-protein kinase pim-2 (Q9P1W9 whole entry): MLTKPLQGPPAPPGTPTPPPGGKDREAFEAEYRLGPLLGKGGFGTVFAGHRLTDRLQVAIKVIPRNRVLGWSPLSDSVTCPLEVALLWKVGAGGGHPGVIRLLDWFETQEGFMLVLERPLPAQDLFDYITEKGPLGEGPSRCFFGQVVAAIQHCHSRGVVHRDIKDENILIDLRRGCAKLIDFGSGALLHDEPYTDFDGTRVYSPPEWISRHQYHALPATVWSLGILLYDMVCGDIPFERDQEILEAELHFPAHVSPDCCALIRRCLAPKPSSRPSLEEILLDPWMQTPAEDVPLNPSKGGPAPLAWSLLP

Structure (SMILES): O=C1C2=[N+]([O-])[C@H]3CCCC[C@H]3[N+]([O-])=C2c2ccccc21
- EC50 [1]: > 120 µM (not active)
- IC50 [2]: 10.2 µM (active)

- Ki [3]: 0.1 µM (active)
- Ki [4]: 0.00316 µM (active)
- Ki [5]: > 1.58 µM (inactive)
- Ki [6]: 0.631 µM (active)
- Ki [7]: > 0.631 µM (inactive)
- Ki [8]: > 2.51 µM (inactive)
- Ki [9]: 0.0251 µM (active)
- Ki [10]: 0.00631 µM (active)
- Ki [11]: 0.501 µM (active)
- Ki [12]: > 5.01 µM (inactive)
- Ki [13]: 0.0398 µM (active)
Structure (SMILES): NC1CCC(Nc2nccc(-c3c[nH]c4ncccc34)n2)CC1 (configuration not stated)

- Ki [14]: 50.1 µM (active)
Structure (SMILES): OCc1cc(-c2ccc3[nH]ncc3c2)on1

Structure (SMILES): COC(C(=O)N1Cc2[nH]nc(NC(=O)c3ccc(N4CCN(C)CC4)cc3)c2C1)c1ccccc1 (configuration not stated)
- Ki [15]: > 3.98 µM (inactive)
- Ki [16]: > 7.94 µM (inactive)
- Ki [17]: 7.94 µM (active)
